{
  "source": "patent US20170158636A1",
  "about": "“FUNCTIONALISED AND SUBSTITUTED CARBAZOLES AS ANTI-CANCER AGENTS” (Novogen Ltd., priority 2014, published 2017)",
  "tested_on": "actin cytoskeleton in SK-N-SH neuroblastoma cells",
  "assay": "Microfilament disruption assay (phalloidin staining, linear feature quantitation)",
  "format": "cell-based",
  "conditions": "0-40 μM, 24 hours post treatment",
  "protocol": "FIG. 1: Imaging and quantitation of actin filaments in SK-N-SH neuroblastoma cells treated with compound (A) 1007, (B) 1013 and (C) 1016. Cells were stained with 488-Atto-Phallodin and DAPI to visualize the actin filament bundles and the nucleus, respectively. Shown in the top panel is a representative gray scale immunofluorescent image from control (vehicle alone), 5 μM and 10 μM treated cells. […] The coloured lines indicate the detected actin filaments. Also shown is the quantitation of cell number, filament number/cell and filament number/cell area (μM^2). Statistical analysis was performed using a one way ANNOVA-multiple comparison where each drug treated group was compared to the control. ****p<0.0001, […].\nThe ability of compounds 1007, 1013 and 1016 to disrupt the actin cytoskeleton was assessed in vitro using the microfilament disruption assay (FIG. 1).\nBriefly, SK-N-SH neuroblastoma cells were seeded at 1800 cells/well in a 384 Perkin Elmer High Content Imaging “Cell Carrier” plate and left to plate down 24 hours prior to treatment. Cells were then treated with 0-40 μM of the test compounds (1:2 serial dilution in a 10 point dose response). 24 hours post treatment, cells were fixed with 4% w/v paraformaldehyde (PBS), permeabilized with Triton-X-100 and stained with 488-Atto-Phallodin and DAPI to visualize the actin filament bundles and the nucleus respectively. Single plane images were obtained on the Perkin Elmer Opera confocal microscope using a 20× objective. Twelve fields of view per condition (representing approximately 300-800 cells) were imaged. Images were then exported and changes in the organization and numbers of actin filaments within the cell were quantitated using a linear feature detection algorithm developed by CSIRO (Vindin et al. 2014). This algorithm detects the “ridge lines” or “peaks” in local pixel intensity in the cell image. It is these “ridge lines” that correspond to actin filament bundles and allow us to quantitate the number of filaments per cell.",
  "data": [
    {"smiles": "CCN(CC)CCCn1c2ccccc2c2cc(C(=O)N3CCN(CCc4ccc(F)cc4)CC3)ccc21", "note": "[Compound 1007, (9-(3-(diethylamino)propyl)-9H-carbazol-3-yl)(4-(4-fluorophenethyl)piperazin-1-yl)methanone]", "values": [
      {"measurement": "disruption of the actin cytoskeleton", "value": "disrupt the actin cytoskeleton in a dose-dependent manner"}
    ]}
  ]
}
